In patent publication US8252294B2, “Methods of screening for compounds that inhibit the biosynthesis of GPI in malaria parasites” (Eisai R&D Management Co., Ltd., priority 2002, dated 2012):

How the values were obtained:
opfGWT1-expressing yeast = test: Growth inhibition of GWT1-disrupted yeast expressing opfGWT1 (pGAP-opfGWT1), culture turbidity; assay type: cell-based, S. cerevisiae; details: for culture turbidity at 660 nm: pGAP-opfGWT1 yeast, 30° C., two days
Description: (§1) An expression cassette was constructed by inserting the S. cerevisiae GWT1 terminator, and the S. cerevisiae GAPDH promoter and multi-cloning site into the SacI-KpnI site of the single-copy vector pRS316. S. cerevisiae GWT1 and opfGWT1 were inserted into the multi-cloning site to prepare pGAP-ScGWT1 and pGAP-opfGWT1 plasmids, respectively. These plasmids were introduced into the GWT1 disruptant. Serial two-fold dilutions of compound (1) were prepared using YPAD to make the highest final concentration 50 μg/ml. A 50 μl aliquot of the diluted compound was added to each well of a 96-well plate. Overnight cultures of yeast cells comprising each plasmid were diluted 1000-fold and then a 50 μl aliquot of the dilution was added to each well. The plates were incubated at 30° C. for two days, and then culture turbidity was determined at 660 nm (FIG. 2 and Table 1).

ScGWT1-expressing yeast = test: Growth inhibition of GWT1-disrupted yeast expressing S. cerevisiae GWT1 (pGAP-ScGWT1), culture turbidity; assay type: cell-based; details: for culture turbidity at 660 nm: pGAP-ScGWT1 yeast, 30° C., two days
Description: as §1

[1] = test system: P. falciparum FCR3 strain; test: Antimalarial activity in red blood cell culture system (infection rate by Giemsa staining); assay type: cell-based; details: human red blood cells infected with P. falciparum FCR3, 48 hours, Giemsa staining (FIG. 3)
Description: Specifically, a test compound was dissolved in 100% DMSO, diluted with a medium, and an 80 μl aliquot of the dilution was added to each well of a 96-well culture plate. P. falciparum FCR3 strain was pre-cultured in RPMI1640 medium containing 10% human serum at 37° C., and then 20 μl of the cultured cells (containing 10% red blood cells) was added to each well. At this time, 0.47% of red blood cells were infected. After culturing under 5% O2, 5% CO2, and 90% N2 at 37° C. for 48 hours, the malaria parasites were stained using Giemsa staining. The number of protozoan-infected red blood cells was determined in order to estimate infection rate (FIG. 3).

SMILES | inhibition at 25 µg/mL (opfGWT1-expressing yeast; Saccharomyces cerevisiae, opfGWT1-expressing yeast, compound at 25 μg/ml) [%] | viability of yeast (opfGWT1-expressing yeast; opfGWT1-expressing yeast, compound at 50 μg/ml) | culture turbidity at 660 nm (opfGWT1-expressing yeast; compound 6.25 μg/ml) | culture turbidity at 660 nm (opfGWT1-expressing yeast; compound 12.5 μg/ml) | culture turbidity at 660 nm (opfGWT1-expressing yeast; compound 25 μg/ml) | culture turbidity at 660 nm (opfGWT1-expressing yeast; compound 50 μg/ml) | inhibition at 25 µg/mL (ScGWT1-expressing yeast; Saccharomyces cerevisiae, ScGWT1-expressing yeast, compound at 25 μg/ml) [%] | viability of yeast (ScGWT1-expressing yeast; ScGWT1-expressing yeast, compound at 50 μg/ml) | culture turbidity at 660 nm (ScGWT1-expressing yeast; compound 6.25 μg/ml) | culture turbidity at 660 nm (ScGWT1-expressing yeast; compound 12.5 μg/ml) | culture turbidity at 660 nm (ScGWT1-expressing yeast; compound 25 μg/ml) | culture turbidity at 660 nm (ScGWT1-expressing yeast; compound 50 μg/ml) | antimalarial activity (infection rate of red blood cells) [1]
CCCCc1ccc(Cc2nccc3ccccc23)cc1 [compound (1), 1-(4-butylbenzyl) isoquinoline] | ~50 | completely nonviable | 0.6990 | 0.6910 | 0.3630 | 0.0530 | ~85 | completely nonviable | 0.7370 | 0.6670 | 0.1140 | 0.0420 | 
CCCCc1ccc(Cc2nccc3ccccc23)c(O)c1 [compound (3), 5-butyl-2-(1-isoquinolylmethyl) phenol] |  |  |  |  |  |  |  |  |  |  |  |  | strong antimalarial activity
COc1cccnc1Cc1ccc(Br)cc1F [compound (4), 2-(4-bromo-2-fluorobenzyl)-3-methoxypyridine] |  |  |  |  |  |  |  |  |  |  |  |  | lowest activity
